Legend:
D(4) dopamine receptor = biological target: T1, D(4) dopamine receptor (Homo sapiens, UniProt P21917); assay: Displacement of [3H]spiperone from human dopamine receptor subtype hD4 expressed in HEK293 cells; assay type: cell-based
T1 sequence (P21917 whole entry): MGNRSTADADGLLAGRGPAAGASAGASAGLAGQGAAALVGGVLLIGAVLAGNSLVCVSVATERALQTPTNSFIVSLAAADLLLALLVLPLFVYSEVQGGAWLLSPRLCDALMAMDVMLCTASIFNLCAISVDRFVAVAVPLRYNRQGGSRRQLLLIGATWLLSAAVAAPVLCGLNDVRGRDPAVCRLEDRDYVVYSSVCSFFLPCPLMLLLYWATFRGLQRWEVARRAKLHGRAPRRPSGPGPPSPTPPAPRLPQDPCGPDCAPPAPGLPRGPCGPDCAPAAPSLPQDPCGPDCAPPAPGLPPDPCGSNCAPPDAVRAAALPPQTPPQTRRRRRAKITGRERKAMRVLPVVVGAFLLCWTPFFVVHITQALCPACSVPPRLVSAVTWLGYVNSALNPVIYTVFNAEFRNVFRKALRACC

D(3) dopamine receptor = D(3) dopamine receptor (Homo sapiens, UniProt P35462); assay: Displacement of [3H]spiperone from human dopamine receptor subtype hD3 expressed in CHO cells; assay type: cell-based
D(3) dopamine receptor, sequence (P35462 whole entry): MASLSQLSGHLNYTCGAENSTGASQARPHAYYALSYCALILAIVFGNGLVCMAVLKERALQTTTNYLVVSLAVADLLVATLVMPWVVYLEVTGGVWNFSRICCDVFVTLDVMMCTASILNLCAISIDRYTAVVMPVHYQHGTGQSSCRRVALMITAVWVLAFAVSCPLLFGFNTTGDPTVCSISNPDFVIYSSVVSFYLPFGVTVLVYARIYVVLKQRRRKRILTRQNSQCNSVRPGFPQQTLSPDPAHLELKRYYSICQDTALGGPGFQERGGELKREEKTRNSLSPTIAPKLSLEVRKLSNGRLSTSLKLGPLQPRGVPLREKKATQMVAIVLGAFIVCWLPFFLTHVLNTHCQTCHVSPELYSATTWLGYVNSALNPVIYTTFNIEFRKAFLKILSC

D(2) dopamine receptor = D(2) dopamine receptor (Homo sapiens, UniProt P14416); assay: Displacement of [3H]spiperone from human dopamine D2 receptor in CHO cells; assay type: cell-based
D(2) dopamine receptor, sequence (P14416 whole entry): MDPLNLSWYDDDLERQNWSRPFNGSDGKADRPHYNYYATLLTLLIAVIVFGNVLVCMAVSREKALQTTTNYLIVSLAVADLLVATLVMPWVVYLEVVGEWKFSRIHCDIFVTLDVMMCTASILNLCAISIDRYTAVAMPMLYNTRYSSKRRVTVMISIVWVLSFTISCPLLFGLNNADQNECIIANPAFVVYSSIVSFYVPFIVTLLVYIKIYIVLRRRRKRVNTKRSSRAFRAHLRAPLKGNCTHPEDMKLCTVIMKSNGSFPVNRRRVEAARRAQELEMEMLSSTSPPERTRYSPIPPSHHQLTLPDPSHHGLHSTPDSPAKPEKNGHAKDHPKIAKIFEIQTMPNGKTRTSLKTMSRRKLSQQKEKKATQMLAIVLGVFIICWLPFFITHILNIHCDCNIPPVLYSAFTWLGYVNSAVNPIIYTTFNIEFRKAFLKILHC

[1] = biological target: Dopamine receptors; D2 & D4 (Homo sapiens) (UniProt P14416+P21917); assay: Ratio of dopamine D2/D4 receptor binding; assay type: protein assay
Dopamine receptors; D2 & D4 (Homo sapiens), sequence (P14416 whole entry, looked up, one chain of several): as the sequence (P14416 whole entry) above

[2] = Bioavailability was evaluated in rhesus monkey at an intravenous dose of 1 mg/kg and peroral dose of 1 mg/kg; assay type: ADME, organism-based, Macaca mulatta; conditions: in vivo, po, read-out: Bioavailabiility
[3] = Maximum concentration in plasma (Cmax) was evaluated in rat at an intravenous dose of 3 mg/kg and peroral dose of 5 mg/kg; assay type: ADME, organism-based; conditions: po
[4] = Bioavailability was evaluated in rat at an intravenous dose of 3 mg/kg and peroral dose of 5 mg/kg; assay type: ADME, organism-based; conditions: in vivo, po, read-out: Bioavailabiility
Rattus norvegicus [5] = assay: Plasma clearance was evaluated in rat at an intravenous dose of 3 mg/kg and peroral dose of 5 mg/kg; assay type: ADME, organism-based; conditions: in vivo
[6] = Half life was evaluated in rhesus monkey at an intravenous dose of 1 mg/kg and peroral dose of 1 mg/kg; assay type: ADME, organism-based, Macaca mulatta; conditions: in vivo
[7] = Half life was evaluated in rat at an intravenous dose of 3 mg/kg and peroral dose of 5 mg/kg; assay type: ADME, organism-based; conditions: in vivo
Rattus norvegicus [8] = assay: Volume of distribution (Vss) was evaluated in rat at an intravenous dose of 3 mg/kg and peroral dose of 5 mg/kg; assay type: ADME, organism-based; conditions: in vivo
[9] = Maximum concentration in plasma (Cmax) was evaluated in rhesus monkey at an intravenous dose of 1 mg/kg and peroral dose of 1 mg/kg; assay type: ADME, organism-based, Macaca mulatta; conditions: po
Rhesus monkey = assay: Volume of distribution (Vss) was evaluated in rhesus monkey at an intravenous dose of 1 mg/kg and peroral dose of 1 mg/kg; assay type: ADME, organism-based, Macaca mulatta; conditions: in vivo

Row | SMILES | Ki (D(4) dopamine receptor) [nM] | Ki (D(3) dopamine receptor) [nM] | Ki (D(2) dopamine receptor) [nM] | Ratio [1] | bioavailability [2] [%] | Cmax [3] [ng/mL] | bioavailability [4] [%] | Plasma clearance (Rattus norvegicus [5]) [Clp] | half-life [6] [min] | half-life [7] [min] | Vss (Rattus norvegicus [8]) [kg⁻¹] | Cmax [9] [ng/mL] | Vss (Rhesus monkey) [kg⁻¹]
1 | Clc1ccc(CN2CC=C(c3nc4cc(Cl)ccc4o3)CC2)cc1 | 8.4 | > 4500 | > 1700 | > 200 | – | – | – | – | – | – | – | – | –
2 | Clc1ccc(CN2CC=C(c3nc4cc(Cl)ccc4s3)CC2)cc1 | 21 | 660 | 2000 | 97 | – | – | – | – | – | – | – | – | –
3 | Clc1cccc(CN2CC=C(c3nc4ccccc4s3)CC2)c1 | 8.1 | 630 | 340 | 42 | – | – | – | – | – | – | – | – | –
4 | Clc1ccccc1CN1CC=C(c2nc3ccccc3s2)CC1 | 87 | 1400 | > 2000 | > 23 | – | – | – | – | – | – | – | – | –
5 | Clc1ccc2[nH]c(C3=CCN(Cc4ccccc4)CC3)nc2c1 | 26 | 2900 | 590 | 23 | – | – | – | – | – | – | – | – | –
6 | C1=C(c2nc3ccccc3[nH]2)CCN(Cc2ccccc2)C1 | 94 | 4400 | 1400 | 15 | – | – | – | – | – | – | – | – | –
7 | Clc1ccc(CN2CC=C(c3nc4ccccc4s3)CC2)cc1 | 1.3 | > 4400 | > 1600 | > 1000 | 9 | 97 | 17 | 39 | 282 | 186 | 3.81 | 23 | 2.5
8 | Clc1ccc(CN2CC=C(c3nc4cc(Cl)ccc4[nH]3)CC2)cc1 | 10 | 900 | 330 | 33 | – | – | – | – | – | – | – | – | –
9 | C1=C(c2nc3ccccc3o2)CCN(Cc2ccccc2)C1 | 97 | 4500 | 240 | 3 | – | – | – | – | – | – | – | – | –
10 | Clc1ccc2oc(C3=CCN(Cc4ccccc4)CC3)nc2c1 | 17 | 1600 | > 1800 | > 100 | – | – | – | – | – | – | – | – | –
11 | Clc1ccc(CN2CC=C(c3nc4ccccc4[nH]3)CC2)cc1 | 68 | 1600 | 670 | 10 | – | – | – | – | – | – | – | – | –
12 | C1=C(c2nc3ccccc3s2)CCN(Cc2ccccc2)C1 | 5 | 560 | 600 | 120 | – | – | – | – | – | – | – | – | –
13 | Clc1ccc2sc(C3=CCN(Cc4ccccc4)CC3)nc2c1 | 44 | 1800 | > 1600 | > 36 | – | – | – | – | – | – | – | – | –

Reference: ChEMBL document CHEMBL1130515, “4-Heterocyclyl tetrahydropyridines as selective ligands for the human dopamine D4 receptor” (Bioorg Med Chem Lett, 1997)
